Experimental findings from PubChem BioAssay (NCI) are described below.

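Where inhibition never reached the appropriate level, the endpoint shown equals the highest concentration tested. Otherwise, values were interpolated linearly from a five-concentration, 48-hour dose response in 96-well plates. Here, GI50 denotes the concentration required for 50% inhibition of growth. Definition used: TGI = concentration required for complete inhibition of growth.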

Common to all, as to assay: inhibition of tumour cell growth, NCI panel, 48 h
Test [1] relates to SF-268 CNS.
In test [2] the test system is NCI-H226 lung.
Test [3] has as its system BT-549 breast.
Test [4] concerns RXF 393 renal.
In test [5] the test system is OVCAR-4 ovarian.
The subject of test [6] is HT29 colon.
For test [7], the system named is HOP-92 NSCLC.
Test [8] has as its system CCRF-CEM leukemia.
The subject of test [9] is HOP-62 NSCLC.
Test [10] relates to A549 NSCLC.
In test [11] the test system is NCI/ADR-RES ovarian.
The test system of test [12] is M14 melanoma.

`CN(C)c1ccc(/C=C/c2ccc(S(N)(=O)=O)cc2)cc1`: the GI50 in test [1] is 7.16 µM; in test [2] it was 12.1 µM; in test [3] it was 2.14 µM; in test [5], 3.35 µM; in [6], 30.8 µM; in test [7], 16.6 µM. Also, the values for the GI50 in test [8] and in [10] were 46 µM and 10.1 µM, respectively. The TGI is above 100 µM in test [1]; 33 µM in test [2]; 8.62 µM in [3]; above 100 µM in test [4]; 10.1 µM in test [5]; above 100 µM in test [6]. Also, the TGI in test [7] was 36 µM; in test [8], above 100 µM; in test [9], 36.6 µM; in test [10], 26.2 µM; in test [11], 40 µM; in test [12] it was 35.9 µM.
On to `COc1cc2c(c(OC)c1OC)C(=O)[C@@H]1[C@H]2N1C(=O)NCCCl`, for which the TGI in test [1], in test [2], in [3], in [4], in test [5] and in test [6] was above 100 µM throughout. In addition, the TGI in test [7], in test [8], in test [9], in test [10], in [11] and in test [12] was above 100 µM each time.
With `c1cc(-c2ccc(-c3ccc(-c4ccc(-c5ccncc5)o4)cc3)o2)ccn1`, the TGI in [1] is 38.1 µM; in test [2], 56 µM; in test [3] it was 30.7 µM; in [4] it was above 100 µM; in [5] it was 65.4 µM; in [6] it was 44.7 µM. Besides, the TGI in test [7] is 83.7 µM; in test [8], 30.2 µM; in [9], 55.3 µM; in [10] it was 35.7 µM; in test [11], above 100 µM; in test [12], 32.2 µM.
For the molecule `COc1cc(-c2nc3ccc(N4CCN(C)CC4)cc3[nH]2)c(OC)c2[nH]c(COC(C)=O)nc12`, the TGI in test [1] was above 100 µM; in test [2], above 100 µM; in [3] it was above 100 µM; in test [4] it was 59.4 µM; in [5], above 100 µM; in test [6], above 100 µM. Besides, the TGI in test [7] was above 100 µM; in [8], above 100 µM; in test [9], above 100 µM; in [10], above 100 µM; in test [11], above 100 µM; in test [12], 35 µM.
